# According to patent US9776992B2, “1-oxo-1,2-dihydroisoquinolin-7-yl-(5-substituted-thiophen-2-yl)-sulfonamide compounds, formulations containing those compounds, and their use as AICARFT inhibitors in the treatment of cancers” (Eli Lilly and Company, priority 2014, dated 2017):
# System: human colorectal adenocarcinoma cell line HCT-116 mouse xenograft
# Assay: Antitumor efficacy in HCT-116 mouse xenograft tumor model
# Format: in vivo
# Conditions: for % T/C: HCT-116 xenograft, Day 23, Delta T/C, * = P<0.05
# Protocol: In vivo studies are performed using female athymic nude mice (Harlan) with a bodyweight of 23-28 g at first measurement. Upon receipt and throughout the study, the animals are housed 5 animals per cage in appropriately sized solid-bottom cages with contact bedding. The animal room is maintained on a 12-hour light/dark cycle. Animals are acclimated for 14 days prior to implantation of the NCI-H460 or HCT-116 cells on low folate diet (Teklad 130451) ad libitum and autoclaved tap water is provided ad libitum. The HCT-116 and NCI-H460 cell line are obtained from American Type Culture Collection (ATCC) and is cultured following ATCC instructions. Cells used for implantation are harvested during log phase growth and suspended in serum-free media. The suspended cells are then diluted 1:1 with BD Matrigel Matrix (ref 354234). Cells are injected in the right flank with 5.0E+06 cells (0.2 mL cell/Matrigel suspension). Tumors are monitored beginning day 8 post implant. Animals are redistributed into groups with 5-6 animals per group utilizing proprietary randomization software when average tumor volume reaches 200 mm^3. Groups 1-12 are maintained on a low folate diet (Teklad 130451) and folic acid (Sigma F8798 Lot #SLBH0909V) administration at doses listed in the Table 19 began 28 hours prior to dose initiation and 4 hours prior to each dose. Folic acid is formulated weekly in PBS and dosed via oral gavage at 0.2 mL. Groups 13-16 are placed on standard chow (Teklad 2920X) at randomization. The compound is formulated weekly in 20% HPBCD in Phosphate buffer pH 8 with one molar equivalent NaOH added. The formulated compound is administered at the doses and schedules indicated in Table 19 by oral gavage (0.2 mL). The vehicle is also given QD as the control arm of the study. Tumor volume and body weight are measured 2× a week. Tumor volume is determined by caliper measurements (mm) and using the formula for an ellipsoid sphere: tumor volume (mm^3)=length×width^2/2, where length and width refer to the larger and smaller perpendicular dimensions collected at each measurement. The animal behavior and animal health are monitored daily during dosing period.
# The statistical analysis of the tumor volume data begins with a data transformation to a log scale to equalize variance across time and treatment groups. The log volume data are analyzed with a two-way repeated measures analysis of variance by time and treatment using the MIXED procedures in SAS software (Version 9.3). The correlation model for the repeated measures is Spatial Power. Treated groups are compared to the control group at each time point. The MIXED procedure is also used separately for each treatment group to calculate adjusted means and standard errors at each time point. Both analyses account for the autocorrelation within each animal and the loss of data that occurs when animals with large tumors are removed from the study early. The adjusted means and standard errors are plotted for each treatment group vs time. The analysis comparing the treated groups to the control groups at each time point uses the log 10 tumor volumes and produces the p-values. For statistical significance of p-values shown, “*”=P<0.05.
# Delta T/C, % calculation is used. Equations: T=Final tumor volume in treated group; T0=Baseline tumor volume in treated group (assumed to be same as C0); C=Final tumor volume in control group; C0=Baseline tumor volume in control group (assumed to be same as T0); Delta T/C, %=100*(T−T0)/(C−C0)
structure (smiles),measurement,setting,value
"O=c1[nH]ccc2cc(F)c(NS(=O)(=O)c3ccc(N4CC[C@@H](O)C4)s3)cc12 [Example 1, N-(6-Fluoro-1-oxo-1,2-dihydroisoquinolin-7-yl)-5-[(3R)-3-hydroxypyrrolidin-1-yl]thiophene-2-sulfonamide]",in vivo anticancer activity (in words),"HCT-116 xenograft tumors, QD continuously for 2 weeks",demonstrates in vivo anticancer activity
same,% T/C,"Group 6, low folate diet, folic acid 0.75 mg/kg (QD × 15, orally), 10 mg/kg QD × 14, orally",65* %
same,% T/C,"Group 7, low folate diet, folic acid 0.75 mg/kg (QD × 15, orally), 30 mg/kg QD × 14, orally",57* %
same,% T/C,"Group 14, standard chow, no folic acid, 10 mg/kg QD × 14, orally",112%
same,% T/C,"Group 15, standard chow, no folic acid, 30 mg/kg QD × 14, orally",49%
